Source: patent US20150105252A1, “SUBSTITUTED PYRAZOLES AS HERBICIDES” (E I DU PONT DE NEMOURS AND COMPANY, priority 2013, published 2015)

Legend:
johnsongrass = test: Test C preemergence; type: in vivo, Sorghum halepense; details: preemergence; for Plant response rating, Johnsongrass: 125 g ai/ha, scale 0 to 100, 0 = no effect, 100 = complete control
How it was run: (§1)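 Visual rating, 0–100 scale (0 no effect, 100 complete control), vs untreated controls after 13–15 d greenhouse. Pre: seeds in loam/sand, treated at sowing. Post: plants in peat-based mix, 1- to 4-leaf (2–18 cm). Solvent + surfactant formulation, non-phytotoxic.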

pigweed = test: Test A postemergence; type: in vivo, Amaranthus retroflexus; details: Postemergence
How it was run: (§2)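 Ratings express plant response from 0 (no effect) to 100 (complete control), judged visually against untreated controls after approximately 10 days in the greenhouse. Preemergence applications were made as directed soil sprays onto seeded loam–sand mix, and postemergence applications onto 2–10 cm plants at one- to two-leaf stage.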

kochia = test: Test C postemergence; type: in vivo, Kochia scoparia; details: for Plant response rating (scale of 0 to 100 where 0 is no effect and 100 is complete control), Kochia: Postemergence, 31 g ai/ha, visually evaluated after 13 to 15 days; for Kochia plant response rating / Plant response rating, Kochia: postemergence; for Kochia plant response rating: 62 g ai/ha, scale 0 to 100
How it was run: as §1

ryegrass, Italian = test: Test C preemergence; type: in vivo, Lolium multiflorum; details: preemergence; for Plant response rating, Ryegrass, Italian: 125 g ai/ha, scale 0 to 100, 0 = no effect, 100 = complete control
How it was run: as §1

crabgrass, large [1] = test: Test C preemergence; type: in vivo, Digitaria sanguinalis; details: preemergence; for Plant response rating, Crabgrass, Large: 125 g ai/ha, scale 0 to 100, 0 = no effect, 100 = complete control
How it was run: as §1

crabgrass, large [2] = test: Test A preemergence; type: in vivo, Digitaria sanguinalis; details: preemergence
How it was run: as §2

foxtail, giant = test: Test C preemergence; type: in vivo, Setaria faberii; details: preemergence; for Plant response rating, Foxtail, Giant: 125 g ai/ha, scale 0 to 100, 0 = no effect, 100 = complete control
How it was run: as §1

barnyardgrass [3] = test: Test C postemergence; type: in vivo, Echinochloa crus-galli; details: for Plant response rating (scale of 0 to 100 where 0 is no effect and 100 is complete control), Barnyardgrass: Postemergence, 31 g ai/ha, visually evaluated after 13 to 15 days; for Barnyardgrass plant response rating / Plant response rating, Barnyardgrass: postemergence; for Barnyardgrass plant response rating: 62 g ai/ha, scale 0 to 100
How it was run: as §1

barnyardgrass [4] = test: Test A postemergence; type: in vivo, Echinochloa crus-galli
How it was run: as §2

waterhemp = test: Test C preemergence; type: in vivo, Amaranthus rudis; details: preemergence; for Plant response rating, Waterhemp: 125 g ai/ha, scale 0 to 100, 0 = no effect, 100 = complete control
How it was run: as §1

chickweed = test: Test C postemergence; type: in vivo, Stellaria media; details: for Plant response rating (scale of 0 to 100 where 0 is no effect and 100 is complete control), Chickweed: Postemergence, 31 g ai/ha, visually evaluated after 13 to 15 days; for Chickweed plant response rating / Plant response rating, Chickweed: postemergence; for Chickweed plant response rating: 62 g ai/ha, scale 0 to 100
How it was run: as §1

velvetleaf = test: Test C preemergence; type: in vivo, Abutilon theophrasti; details: preemergence; for Plant response rating, Velvetleaf: 125 g ai/ha, scale 0 to 100, 0 = no effect, 100 = complete control
How it was run: as §1

crabgrass, large [5] = test: Test C postemergence; type: in vivo, Digitaria sanguinalis; details: for Plant response rating (scale of 0 to 100 where 0 is no effect and 100 is complete control), Crabgrass, Large: Postemergence, 31 g ai/ha, visually evaluated after 13 to 15 days; for Crabgrass, Large plant response rating / Plant response rating, Crabgrass, Large: postemergence; for Crabgrass, Large plant response rating: 62 g ai/ha, scale 0 to 100
How it was run: as §1

morningglory = test: Test A preemergence; type: in vivo, Ipomoea spp.; details: preemergence
How it was run: as §2

[6] = 31 g ai/ha, visual rating, scale 0 to 100 (0 no effect, 100 complete control), 13 to 15 days
[7] = 62 g ai/ha, scale 0 to 100 (0 no effect, 100 complete control), 13 to 15 days
[8] = 250 g ai/ha, scale 0 to 100, 0 is no effect, 100 is complete control
[9] = 125 g ai/ha, 0 to 100 scale, 0 no effect, 100 complete control
[10] = 500 g ai/ha, 0 to 100 scale (0 no effect, 100 complete control)
[11] = 250 g ai/ha, scale 0 to 100 (0 no effect, 100 complete control)
[12] = 125 g ai/ha, scale 0 to 100, 0 no effect, 100 complete control
[13] = 125 g ai/ha, visual injury approx. 10 days after treatment
[14] = 500 g ai/ha, visual injury after approx. 10 days, 0 to 100 scale (0 no effect, 100 complete control)
[15] = Postemergence, 500 g ai/ha, 0 to 100 scale (0 no effect, 100 complete control)
[16] = postemergence, 125 g ai/ha, about 10 days, visual rating on 0 to 100 scale (0 no effect, 100 complete control)

CCCc1cc(C(=O)NC(C)C)nn1Cc1ccnc(C(F)(F)F)c1 [Compound 186]
Johnsongrass plant response rating (johnsongrass; [6]): 75
Johnsongrass plant response rating (johnsongrass; [7]): 98
Plant response rating, Johnsongrass (johnsongrass; 13 to 15 days): 100
Johnsongrass plant response rating (johnsongrass; [8]): 100
Pigweed plant response rating (pigweed; [9]): 60
Pigweed plant response rating (pigweed; [10]): 100
Plant response rating (scale of 0 to 100 where 0 is no effect and 100 is complete control), Kochia (kochia): 80
Kochia plant response rating (kochia): 85
Plant response rating, Kochia (kochia; [11]): 95
Plant response rating, Kochia (kochia; [12]): 90
Ryegrass, Italian plant response rating (ryegrass, Italian; [6]): 5
Ryegrass, Italian plant response rating (ryegrass, Italian; [7]): 80
Plant response rating, Ryegrass, Italian (ryegrass, Italian; 13 to 15 days): 90
Ryegrass, Italian plant response rating (ryegrass, Italian; [8]): 90
Crabgrass, Large plant response rating (crabgrass, large [1]; [6]): 100
Crabgrass, Large plant response rating (crabgrass, large [1]; [7]): 100
Plant response rating, Crabgrass, Large (crabgrass, large [1]; 13 to 15 days): 100
Crabgrass, Large plant response rating (crabgrass, large [1]; [8]): 100
Crabgrass, Large plant response rating (0 to 100 scale) (crabgrass, large [2]; [13]): 100
Crabgrass, Large plant response rating (crabgrass, large [2]; [14]): 100
Foxtail, Giant plant response rating (foxtail, giant; [6]): 100
Foxtail, Giant plant response rating (foxtail, giant; [7]): 100
Plant response rating, Foxtail, Giant (foxtail, giant; 13 to 15 days): 100
Foxtail, Giant plant response rating (foxtail, giant; [8]): 100
Plant response rating (scale of 0 to 100 where 0 is no effect and 100 is complete control), Barnyardgrass (barnyardgrass [3]): 5
Barnyardgrass plant response rating (barnyardgrass [3]): 10
Plant response rating, Barnyardgrass (barnyardgrass [3]; [11]): 55
Plant response rating, Barnyardgrass (barnyardgrass [3]; [12]): 10
Barnyardgrass plant response rating (barnyardgrass [4]; [15]): 90
Barnyardgrass plant response rating (barnyardgrass [4]; [16]): 90
Waterhemp plant response rating (waterhemp; [6]): 100
Waterhemp plant response rating (waterhemp; [7]): 100
Plant response rating, Waterhemp (waterhemp; 13 to 15 days): 100
Waterhemp plant response rating (waterhemp; [8]): 100
Plant response rating (scale of 0 to 100 where 0 is no effect and 100 is complete control), Chickweed (chickweed): 70
Chickweed plant response rating (chickweed): 80
Plant response rating, Chickweed (chickweed; [11]): 100
Plant response rating, Chickweed (chickweed; [12]): 85
Velvetleaf plant response rating (velvetleaf; [6]): 100
Velvetleaf plant response rating (velvetleaf; [7]): 100
Plant response rating, Velvetleaf (velvetleaf; 13 to 15 days): 100
Velvetleaf plant response rating (velvetleaf; [8]): 100
Plant response rating (scale of 0 to 100 where 0 is no effect and 100 is complete control), Crabgrass, Large (crabgrass, large [5]): 5
Crabgrass, Large plant response rating (crabgrass, large [5]): 5
Plant response rating, Crabgrass, Large (crabgrass, large [5]; [11]): 80
Plant response rating, Crabgrass, Large (crabgrass, large [5]; [12]): 20
Morningglory plant response rating (0 to 100 scale) (morningglory; [13]): 100
Morningglory plant response rating (morningglory; [14]): 100

CCCc1cc(C(=O)NC2CC2)nn1Cc1ccnc(OC(F)F)c1 [Compound 205]
Johnsongrass plant response rating (johnsongrass; [6]): 70
Johnsongrass plant response rating (johnsongrass; [7]): 80
Plant response rating, Johnsongrass (johnsongrass; 13 to 15 days): 90
Johnsongrass plant response rating (johnsongrass; [8]): 100
Pigweed plant response rating (pigweed; [9]): 100
Pigweed plant response rating (pigweed; [10]): 100
Plant response rating (scale of 0 to 100 where 0 is no effect and 100 is complete control), Kochia (kochia): 85
Kochia plant response rating (kochia): 90
Plant response rating, Kochia (kochia; [11]): 95
Plant response rating, Kochia (kochia; [12]): 95
Ryegrass, Italian plant response rating (ryegrass, Italian; [6]): 60
Ryegrass, Italian plant response rating (ryegrass, Italian; [7]): 70
Plant response rating, Ryegrass, Italian (ryegrass, Italian; 13 to 15 days): 90
Ryegrass, Italian plant response rating (ryegrass, Italian; [8]): 95
Crabgrass, Large plant response rating (crabgrass, large [1]; [6]): 100
Crabgrass, Large plant response rating (crabgrass, large [1]; [7]): 100
Plant response rating, Crabgrass, Large (crabgrass, large [1]; 13 to 15 days): 100
Crabgrass, Large plant response rating (crabgrass, large [1]; [8]): 100
Foxtail, Giant plant response rating (foxtail, giant; [6]): 100
Foxtail, Giant plant response rating (foxtail, giant; [7]): 100
Plant response rating, Foxtail, Giant (foxtail, giant; 13 to 15 days): 100
Foxtail, Giant plant response rating (foxtail, giant; [8]): 100
Plant response rating (scale of 0 to 100 where 0 is no effect and 100 is complete control), Barnyardgrass (barnyardgrass [3]): 10
Barnyardgrass plant response rating (barnyardgrass [3]): 10
Plant response rating, Barnyardgrass (barnyardgrass [3]; [11]): 50
Plant response rating, Barnyardgrass (barnyardgrass [3]; [12]): 15
Barnyardgrass plant response rating (barnyardgrass [4]; [15]): 90
Barnyardgrass plant response rating (barnyardgrass [4]; [16]): 80
Waterhemp plant response rating (waterhemp; [6]): 100
Waterhemp plant response rating (waterhemp; [7]): 100
Plant response rating, Waterhemp (waterhemp; 13 to 15 days): 100
Waterhemp plant response rating (waterhemp; [8]): 100
Plant response rating (scale of 0 to 100 where 0 is no effect and 100 is complete control), Chickweed (chickweed): 65
Chickweed plant response rating (chickweed): 90
Plant response rating, Chickweed (chickweed; [11]): 100
Plant response rating, Chickweed (chickweed; [12]): 98
Velvetleaf plant response rating (velvetleaf; [6]): 55
Velvetleaf plant response rating (velvetleaf; [7]): 100
Plant response rating, Velvetleaf (velvetleaf; 13 to 15 days): 100
Velvetleaf plant response rating (velvetleaf; [8]): 100
Plant response rating (scale of 0 to 100 where 0 is no effect and 100 is complete control), Crabgrass, Large (crabgrass, large [5]): 5
Crabgrass, Large plant response rating (crabgrass, large [5]): 10
Plant response rating, Crabgrass, Large (crabgrass, large [5]; [11]): 65
Plant response rating, Crabgrass, Large (crabgrass, large [5]; [12]): 45
